The text below walks through data of patent US20090005436A1, “Substituted Aminoalkyl- and Amidoalkyl-Benzopyran Derivatives” (NEWRON PHARMACEUTICALS S.p.A., priority 2005, published 2009).

Each structure is given as a SMILES string.

For test [1], the target named is T1, MAO-B (Rattus norvegicus, UniProt P19643).
T1 sequence (P19643 1-520): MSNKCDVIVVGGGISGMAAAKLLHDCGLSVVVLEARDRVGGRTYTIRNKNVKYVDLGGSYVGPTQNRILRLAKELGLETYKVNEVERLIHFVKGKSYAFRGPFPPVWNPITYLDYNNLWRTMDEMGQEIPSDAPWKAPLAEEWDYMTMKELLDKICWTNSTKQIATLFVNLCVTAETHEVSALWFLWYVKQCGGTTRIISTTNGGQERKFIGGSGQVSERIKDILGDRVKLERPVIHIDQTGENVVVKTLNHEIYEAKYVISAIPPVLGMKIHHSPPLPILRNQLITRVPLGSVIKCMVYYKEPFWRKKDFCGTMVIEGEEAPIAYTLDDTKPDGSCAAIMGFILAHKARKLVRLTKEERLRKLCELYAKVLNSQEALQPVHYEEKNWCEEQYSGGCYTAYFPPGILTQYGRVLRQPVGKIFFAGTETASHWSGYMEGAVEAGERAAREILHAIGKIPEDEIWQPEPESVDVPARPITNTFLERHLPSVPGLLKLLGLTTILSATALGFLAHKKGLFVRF
Description: In vitro MAO-B enzyme activity radioenzymatic assay (14C-phenylethylamine substrate), rat brain crude mitochondrial fraction.

Test [2] deals with T2, MAO-A (Rattus norvegicus, UniProt P21396).
T2 sequence (P21396 1-526): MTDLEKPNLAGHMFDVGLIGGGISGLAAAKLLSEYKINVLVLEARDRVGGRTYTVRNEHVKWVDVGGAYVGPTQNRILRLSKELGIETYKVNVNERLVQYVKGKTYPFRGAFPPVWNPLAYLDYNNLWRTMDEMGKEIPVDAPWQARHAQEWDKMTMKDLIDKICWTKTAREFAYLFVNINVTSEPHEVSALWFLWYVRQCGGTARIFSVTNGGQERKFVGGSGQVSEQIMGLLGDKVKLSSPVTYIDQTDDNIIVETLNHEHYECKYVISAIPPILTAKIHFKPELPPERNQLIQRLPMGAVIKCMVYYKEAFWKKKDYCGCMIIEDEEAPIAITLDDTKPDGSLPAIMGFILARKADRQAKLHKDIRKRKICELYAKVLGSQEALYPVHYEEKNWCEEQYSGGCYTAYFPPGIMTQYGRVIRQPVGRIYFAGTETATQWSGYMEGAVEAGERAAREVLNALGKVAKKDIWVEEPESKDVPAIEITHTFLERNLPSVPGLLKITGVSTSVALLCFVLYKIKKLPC
Briefly: In vitro MAO-A enzyme activity radioenzymatic assay (14C-serotonin substrate), rat brain crude mitochondrial fraction.

Usually IC50 stands for the concentration needed to halve the response being measured. A high value points to weaker potency. With `CNCc1cc(=O)oc2cc(OCc3cccc(Cl)c3)ccc12` [4-[(Methylamino)methyl]-7-(3-chlorobenzyloxy)-2H-chromen-2-one], the IC50 in test [1] was determined as 10 nM; in test [2], 5.9 µM. Regarding `CNCCc1cc(=O)oc2cc(OCc3cccc(Cl)c3)ccc12` [4-[2-(Methylamino)ethyl]-7-(3-chlorobenzyloxy)-2H-chromen-2-one], the IC50 in test [1] is 300 nM; in test [2] it was 74 µM. For `NNC(=O)Cc1cc(=O)oc2cc(OCc3ccccc3)ccc12` [4-[(Hydrazinocarbonyl)methyl]-7-benzyloxy-2H-chromen-2-one], the IC50 in test [2] stood at 1.4 µM. As to `CN(C)C(=O)Cc1cc(=O)oc2cc(OCc3cccc(Cl)c3)ccc12` [4-[Dimethylaminocarbonyl)methyl]-7-(3-chlorobenzyloxy)-2H-chromen-2-one], the results for the IC50 in test [1] and in test [2] were 40 nM and greater than 100 µM, respectively. In the same order, the values of `CNCc1cc(=O)oc2cc(OCc3cccc(F)c3)ccc12` [4-[(Methylamino)methyl]-7-(3-fluorobenzyloxy)-2H-chromen-2-one] are 20 nM and 13.5 µM. In the same order, the values of `NCCc1cc(=O)oc2cc(OCc3cccc(Cl)c3)ccc12` [4-(2-Aminoethyl)-7-(3-chlorobenzyloxy)-2H-chromen-2-one] are 250 nM and 31.8 µM.

For the compound `NCc1cc(=O)oc2cc(OCc3cccc(Cl)c3)ccc12` [4-Aminomethyl-7-(3-chlorobenzyloxy)-2H-chromen-2-one], the figures for the IC50 in test [1] and in test [2] were 10 nM and 1.9 µM, respectively.

As for `NC(=O)Cc1cc(=O)oc2cc(OCc3cccc(F)c3)ccc12` [4-[(Aminocarbonyl)methyl]-7-(3-fluorobenzyloxy)-2H-chromen-2-one], the IC50 was determined as 50 nM in test [1] and 70 µM in test [2]. In the case of `CN(C)C(=O)CC1=CCOc2cc(OCc3ccccc3)ccc21` [4-[(Dimethylaminocarbonyl)methyl]-7-benzyloxy-2H-chromene], the IC50 was 80 nM in test [1] and 15.3 µM in test [2].
